In patent US10722496B2, “2-iminobiotin for use in the treatment of brain cell injury” (Neurophyxia B.V., priority 2015, dated 2020):
Values joined by “and” are separate entries in the source; they are usually repeats but may differ in a detail not shown here. Equal entries are not always repeated.

Assay: Pharmacokinetics in adults after out of hospital cardiac arrest (Example 5B)
Format: in vivo, human
Design: Obs. AUCinf (based on weight): unit not given here
Experimental: Namely, a first cohort of eight patients received 2-IB in a dose of 0.055 mg/kg/dose every 4 hours iv, 6 times in total (part A; i.e., 0.33 mg/kg/day).
The eight adults that suffered an out of hospital cardiac arrest were treated with 2-IB as a 15-minute IV infusion every 4 hours for 6 administrations. Target temperature management was used to maintain body temperature of 36.0 (median).
Models were generated in order to determine the impact of dose adjustments and variability of AUC.
An exploratory covariate analysis was performed looking at body weight, age, eGFR, SeCre, and Core temperature.

[1] = Table 4, basic model, Max of 8 patients
[2] = Table 4, basic model, Mean of 8 patients
[3] = Table 4, basic model, Median of 8 patients
[4] = Table 4, basic model, Min of 8 patients
[5] = Table 4, basic model, OHCA patients, 0.055 mg/kg/dose iv every 4 hours x6, individual patient (ID 1-8), 0.055 mg/kg
[6] = Table 5, covariate model with Crea0, Max of 8 patients
[7] = Table 5, covariate model with Crea0, Mean of 8 patients
[8] = Table 5, covariate model with Crea0, Median of 8 patients
[9] = Table 5, covariate model with Crea0, Min of 8 patients
[10] = Table 5, covariate model with Crea0, OHCA patients, 0.055 mg/kg/dose iv every 4 hours x6, individual patient (ID 1-8), 0.055 mg/kg
[11] = Table 9, eGFR0 (eGFR at baseline) model, OHCA patients, 0.055 mg/kg/dose iv every 4 hours x6, individual patient (ID 1-8), 0.055 mg/kg
[12] = Table 9, eGFR0 model, Max of 8 patients
[13] = Table 9, eGFR0 model, Mean of 8 patients
[14] = Table 9, eGFR0 model, Median of 8 patients
[15] = Table 9, eGFR0 model, Min of 8 patients
[16] = exploratory covariate analysis, 8 OHCA patients

N=C1N[C@H]2[C@H](CS[C@H]2CCCCC(=O)O)N1 [2-IB, 2-iminobiotin]
AUC cumul. [1]: 5613 ng·h/mL | AUCinf [1]: 1242 ng·h/mL | CL [1]: 22.3 L/h | V [1]: 33.6 L | VSS [1]: 43.5 L | thalf [1]: 6.3 h | AUC cumul. [2]: 3238 ng·h/mL | AUCinf [2]: 625 ng·h/mL | CL [2]: 11.7 L/h | V [2]: 14.9 L | VSS [2]: 24.9 L | thalf [2]: 2.5 h | AUC cumul. [3]: 2777 ng·h/mL | AUCinf [3]: 478 ng·h/mL | CL [3]: 9.5 L/h | V [3]: 12.7 L | VSS [3]: 22.7 L | thalf [3]: 1.6 h | AUC cumul. [4]: 1236 ng·h/mL | AUCinf [4]: 209 ng·h/mL | CL [4]: 4.9 L/h | V [4]: 5.0 L | VSS [4]: 14.9 L | thalf [4]: 1.0 h | AUC cumul. [5]: 5613 ng·h/mL and 4680 ng·h/mL and 3521 ng·h/mL and 5386 ng·h/mL and 1858 ng·h/mL and 2032 ng·h/mL and 1236 ng·h/mL and 1577 ng·h/mL | AUCinf [5]: 1152 ng·h/mL and 860 ng·h/mL and 612 ng·h/mL and 1242 ng·h/mL and 315 ng·h/mL and 343 ng·h/mL and 209 ng·h/mL and 265 ng·h/mL | CL [5]: 6.4 L/h and 5.8 L/h and 7.6 L/h and 4.9 L/h and 11.4 L/h and 18.3 L/h and 22.3 L/h and 16.7 L/h | V [5]: 24.3 L and 11.3 L and 7.3 L and 33.6 L and 5.0 L (2×) and 14.1 L and 19.0 L | VSS [5]: 34.3 L and 21.3 L and 17.3 L and 43.5 L and 15.0 L and 24.1 L and 28.9 L and 14.9 L | thalf [5]: 3.9 h and 2.8 h and 1.9 h and 6.3 h and 1.3 h and 1.2 h (2×) and 1.0 h | AUC cumul. [6]: 5934 ng·h/mL | AUCinf [6]: 1235 ng·h/mL | CL [6]: 17.9 L/h | V [6]: 34.1 L | VSS [6]: 43.4 L | thalf [6]: 5.4 h | AUC cumul. [7]: 3226 ng·h/mL | AUCinf [7]: 614 ng·h/mL | CL [7]: 11.0 L/h | V [7]: 15.4 L | VSS [7]: 24.7 L | thalf [7]: 2.3 h | AUC cumul. [8]: 2405 ng·h/mL | AUCinf [8]: 408 ng·h/mL | CL [8]: 10.2 L/h | V [8]: 13.2 L | VSS [8]: 22.5 L | thalf [8]: 1.5 h | AUC cumul. [9]: 1615 ng·h/mL | AUCinf [9]: 271 ng·h/mL | CL [9]: 5.6 L/h | V [9]: 4.7 L | VSS [9]: 14.0 L | thalf [9]: 1.0 h | AUC cumul. [10]: 5934 ng·h/mL and 4803 ng·h/mL and 2726 ng·h/mL and 4886 ng·h/mL and 2063 ng·h/mL and 2085 ng·h/mL and 1694 ng·h/mL and 1615 ng·h/mL | AUCinf [10]: 1235 ng·h/mL and 884 ng·h/mL and 464 ng·h/mL and 1063 ng·h/mL and 349 ng·h/mL and 352 ng·h/mL and 291 ng·h/mL and 271 ng·h/mL | CL [10]: 6.0 L/h and 5.6 L/h and 10.0 L/h and 5.7 L/h and 10.3 L/h and 17.9 L/h and 16.0 L/h and 16.3 L/h | V [10]: 24.5 L and 11.8 L and 7.2 L and 34.1 L and 4.7 L and 14.5 L and 21.3 L and 5.1 L | VSS [10]: 33.8 L and 21.1 L and 16.5 L and 43.4 L and 14.0 L and 23.8 L and 30.6 L and 14.4 L | thalf [10]: 4.1 h and 2.8 h and 1.4 h and 5.4 h and 1.3 h and 1.2 h and 1.5 h and 1.0 h | Obs. AUCinf (based on weight) (Table 8, covariate model with Crea0, individual patient (ID 1-8)): 291 and 271 and 1235 and 884 and 464 and 1063 and 349 and 352 | AUC [11]: 5905 ng·h/mL and 4813 ng·h/mL and 2712 ng·h/mL and 4896 ng·h/mL and 2060 ng·h/mL and 2061 ng·h/mL and 1705 ng·h/mL and 1636 ng·h/mL | AUCinf [11]: 1227 ng·h/mL and 886 ng·h/mL and 462 ng·h/mL and 1067 ng·h/mL and 349 ng·h/mL and 348 ng·h/mL and 292 ng·h/mL and 274 ng·h/mL | CL [11]: 6.0 L/h and 5.6 L/h and 10.1 L/h and 5.7 L/h and 10.3 L/h and 18.1 L/h and 15.9 L/h and 16.1 L/h | V [11]: 24.5 L and 11.8 L and 7.3 L and 34.2 L and 4.7 L and 14.8 L and 21.1 L and 5.0 L | VSS [11]: 33.8 L and 21.1 L and 16.5 L and 43.5 L and 14.0 L and 24.1 L and 30.4 L and 14.3 L | thalf [11]: 4.1 h and 2.8 h and 1.4 h and 5.4 h and 1.3 h and 1.2 h and 1.5 h and 1.0 h | AUC [12]: 5905 ng·h/mL | AUCinf [12]: 1227 ng·h/mL | CL [12]: 18.1 L/h | V [12]: 34.2 L | VSS [12]: 43.5 L | thalf [12]: 5.4 h | AUC [13]: 3224 ng·h/mL | AUCinf [13]: 613 ng·h/mL | CL [13]: 11.0 L/h | V [13]: 15.4 L | VSS [13]: 24.7 L | thalf [13]: 2.3 h | AUC [14]: 2387 ng·h/mL | AUCinf [14]: 405 ng·h/mL | CL [14]: 10.2 L/h | V [14]: 13.3 L | VSS [14]: 22.6 L | thalf [14]: 1.5 h | AUC [15]: 1636 ng·h/mL | AUCinf [15]: 274 ng·h/mL | CL [15]: 5.6 L/h | V [15]: 4.7 L | VSS [15]: 14.0 L | thalf [15]: 1.0 h | Obs. AUCinf (based on weight) (Table 10, covariate model with eGFR, individual patient (ID 1-8)): 292 and 274 and 1227 and 886 and 462 and 1067 and 349 and 348 | Obs. AUCinf (based on weight) (Table 10, Max of 8 patients): 1227 | Obs. AUCinf (based on weight) (Table 10, Mean of 8 patients): 613 | Obs. AUCinf (based on weight) (Table 10, Median of 8 patients): 405 | Obs. AUCinf (based on weight) (Table 10, Min of 8 patients): 274 | influence of body weight on clearance [16]: not influenced by body weight | influence of body weight on volume [16]: influenced by body weight | influence of renal function on clearance (renal function as Serum Creatinine or eGFR before treatment, exploratory covariate analysis): appears to be influenced be renal function
